Patent US20240109843A1, “BENZALDEHYDE COMPOUNDS WITH DIRECT POLYMER DESTABILIZING EFFECTS TO TREAT SICKLE CELL DISEASE” (VIRGINIA COMMONWEALTH UNIVERSITY, priority 2018, published 2024)

What was measured:
[1] = test system: RBCs from donors with homozygous SCD; assay: Oxygen-independent sickle inhibition in SS blood suspensions under anoxia (100% nitrogen); assay type: cell-based, human; conditions: anoxia
Protocol: To establish oxygen-independent sickle inhibition, the incubation chamber was subsequently opened and exposed to room air for 15 minutes to ensure complete re-oxygenation and reversal of the sickled cells to normal round cells. Reversal was confirmed by microscopy. The incubation chamber was then closed, and the assay was repeated with incubation in 100% nitrogen gas for 1 hour (for screening), or up to 2.5 h (for time-course studies), with collection and fixation of blood aliquots at defined intervals. Aliquot samples were again subjected to microscopic morphological analysis of bright field images to identify the proportion of sickled and non-sickled cells, and sickle inhibition calculated.

Hb [2] = molecular target: T1, Hb (Homo sapiens, UniProt P69905); assay: Drug partitioning studies, fixed and unfixed Hb adducts in non-sickling AA blood; assay type: cell-based; design: Hemoglobin modification, studies using non-sickling AA blood; from tissue; host or cells: non-sickling (AA) human blood, red blood cells; conditions: 2 mM; for Fixed Adducts (%) / Unfixed Adduct (%): 6 biological replicates; for Partitioning Ratio (%): fixed relative to unfixed adducts
Protocol: RBC partitioning studies were conducted both for SS RBCs following sickling studies above, or as separate independent studies with non-sickle blood. Briefly, aliquots of blood samples, which had been incubated with test molecules, were lysed either in deionized water (un-fixed), or in water containing 50 mM sodium borohydride (fixed). Samples were subjected to cation exchange HPLC analyses, as described above. Modified […] (Hb adducts) was determined as a proportion of total Hb in each sample, and partitioning ratio was determined as the relative fraction of Hb modification of fixed samples compared to corresponding non-fixed samples. The partitioning ratio is the relative fraction of Hb that was modified intracellularly by molecules that permeated the RBC membrane, as compared to unfixed adducts which reflect Hb binding without RBC membrane permeation.
Target sequence in this assay (P69905 2-142 limits assumed): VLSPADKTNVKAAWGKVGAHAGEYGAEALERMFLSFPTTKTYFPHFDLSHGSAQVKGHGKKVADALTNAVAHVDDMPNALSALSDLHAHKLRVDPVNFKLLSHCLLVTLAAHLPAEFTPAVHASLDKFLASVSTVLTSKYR
Target sequence in this assay (P68871 2-147 partner limits assumed): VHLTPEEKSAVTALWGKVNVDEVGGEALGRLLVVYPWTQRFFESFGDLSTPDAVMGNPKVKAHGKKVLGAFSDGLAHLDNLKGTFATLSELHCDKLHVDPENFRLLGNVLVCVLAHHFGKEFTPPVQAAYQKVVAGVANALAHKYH

Hb [3] = molecular target: T1, Hb; assay: Hb modification (drug-adduct formation) in SS blood suspensions by cation-exchange HPLC; assay type: binding; design: Blood suspensions from subjects with homozygous SCD; from tissue; host or cells: blood suspensions (20% hematocrit) from donors with homozygous SCD; lysates of the treated red cells; conditions: 2 mM, 4 biological replicates
Protocol: All compounds (Comp 1-13) and comparator molecules (VZHE-039, PP-14, INN-310, and Voxelotor) were evaluated following established procedures. Blood samples from individual donors with homozygous SCD (obtained with informed consent) were diluted using Hemox buffer solution with the addition of glucose (10 mM) and BSA (0.2%) to adjust hematocrit of the blood suspensions to 20%, which standardizes the procedure to normalize the ratio of RBCs to drug, for assay consistency and reproducibility. Briefly, blood suspensions were incubated under room air in the presence of various concentrations of test compounds (0-2 mM) at 37° C. for 1 hour in 96-well round bottom plates. Subsequently, the suspensions were incubated with a hypoxic gas mixture (2.5% Oxygen gas/balance Nitrogen gas) at 37° C. for up to 2 hours prior to fixation with 2% glutaraldehyde solution without exposure to air. The fixated blood aliquots were evaluated by microscopic morphological analysis (image analysis on Image J software) to identify the proportion of sickled and non-sickled RBCs, and sickle inhibition calculated based on the % change from negative control (DMSO).
The residual samples were then washed in phosphate-buffered saline, and hemolyzed in hypotonic lysis buffer, with or without sodium borohydride (50 mM). Aliquots obtained from the lysates with or without sodium borohydride (to reduce Schiff base adducts) were also assessed for level of Hb modification (drug-adduct formation) by cation-exchange HPLC (Hitachi D-7000 Series, Hitachi Instruments, Inc., San Jose, CA) with a weak cation-exchange column (Poly CAT A: 50 mm×4.6 mm, Poly LC, Inc., Columbia, MD). Hemoglobin isotype peaks are eluted with a linear gradient of phase B from 0% to 80% at A410 nm (Mobile Phase A: 40 mM Bis-Tris, 2 mM KCN, pH 6.9; Phase B: 40 mM Bis-Tris, 2 mM KCN, 0.2 M sodium chloride, pH 6.55). Clarified lysate from normal human adult […] (Hb A), as well as commercial standards containing approximately equal amounts of Hb F, A, S and C (Helena Laboratories, Beaumont, TX), were utilized as reference isotypes. Reduced samples were used to assess “fixed adduct” formation (dependent on RBC membrane permeability), whereas non-reduced samples assessed drug-adduct formation independent of drug permeability.
Target sequence in this assay (P69905 2-142): as the sequence (P69905 2-142 limits assumed) above
Target sequence in this assay (P68871 with tags, fused parts or gaps E7V partner): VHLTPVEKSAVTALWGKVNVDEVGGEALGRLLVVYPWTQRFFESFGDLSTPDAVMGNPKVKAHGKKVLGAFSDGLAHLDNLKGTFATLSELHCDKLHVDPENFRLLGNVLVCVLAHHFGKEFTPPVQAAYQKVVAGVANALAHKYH

sickle red blood cells = assay: Antisickling study with human sickle blood under 2.5% oxygen; assay type: cell-based; conditions: Homo sapiens, Erythrocyte, sickle RBCs, 2.5% oxygen, read-out: sickling inhibition; for inhibition at 500 µM: 0.5 mM; for inhibition at 1000 µM: 1 mM
Protocol: (§1) Blood suspensions from subjects with homozygous SCD (resuspended in Hemox™ buffer to a final hematocrit 20%) were incubated under air in the absence or presence of the compounds (0.5 mM, 1 mM and 2 mM) at 37° C. for 1 h to ensure that binding had attained equilibrium. The suspensions were then incubated under hypoxic conditions (2.5% oxygen/97.5% nitrogen) at 37° C. for 1 h. Aliquot samples were fixed with 2% glutaraldehyde solution without exposure to air, and then subjected to microscopic morphological analysis of bright field images (at 40× magnification) of single layer cells on an Olympus BX40 microscope fitted with an Infinity Lite B camera (Olympus), and the coupled Image Capture software. The residual samples were washed in phosphate-buffer saline, and hemolyzed in hypotonic lysis buffer for subsequent Hb-modification and oxygen equilibrium analyses.
The studies described above were conducted using normal whole blood. Next, we investigated whether the improvement in Hb oxygen affinity and the compounds sustained activity also translated to similar effects in SS blood from SCD patients. […] At 1 mM, PP8 and PP9 inhibited nearly 100% of sickling, while PP2, PP6, PP14 inhibited sickling by more than 70%. […] It is clear that the modifications of the present compounds has led to significant improvement in antisickling activity.

sickle Hb = molecular target: T2, sickle Hb (Homo sapiens, UniProt P69905); assay: Oxygen equilibrium (P50 shift) of lysates from treated sickle blood; assay type: cell-based; conditions: 0.5, 1 and 2 mM, SS blood
T2 construct: Blood suspensions from subjects with homozygous SCD; from tissue; host or cells: blood suspensions (20% hematocrit) from donors with homozygous SCD; lysates of the treated red cells
Protocol: as §1
For oxygen equilibrium studies, approximately 100 μL aliquot samples from the above clarified lysate were added to 4 mL of 0.1M potassium phosphate buffer, pH 7.0, in cuvettes and subjected to hemoximetry analysis using a Hemox™ Analyzer (TCS Scientific Corp.) to assess P50 shifts. Degree of P50 shift (ΔP50) was expressed as percentage fractions of control DMSO-treated samples.

Hb [4] = molecular target: T1, Hb; assay: Oxygen equilibrium curve (OEC) studies with normal whole blood; assay type: cell-based; design: Hemoglobin modification, studies using non-sickling AA blood; from tissue; host or cells: non-sickling (AA) human blood, red blood cells; conditions: normal whole blood, 0.5, 1, 2 mM
Protocol: Oxygen equilibrium curve (OEC) studies to determine the effect of the compounds on Hb affinity for oxygen were conducted following standard procedure. Whole blood (30% hematocrit) was incubated in the absence or presence of compounds (0.5 mM, 1.0 mM and 2.0 mM) solubilized in DMSO. […] After equilibration, the sample was removed via syringe and aspirated into an ABL 700 series table top automated blood gas analyzer (Radiometer America, Inc., Westlake, OH) to determine total hemoglobin (tHb), hematocrit (Hct), pH, pCO2, partial pressure of oxygen (pO2), and the Hb-O2 saturation (sO2) values. The measured values of pO2 and sO2 at each oxygen saturation level were then subjected to nonlinear regression analysis using the software Scientist (Micromath, Salt Lake City UT) with the following equation: […]
Aromatic aldehydes are known to prevent hypoxia-induced Hb S polymerization by increasing the Hb affinity for oxygen. We therefore tested the PP compounds in a dose-dependent manner (0.5, 1, 2 mM) for their effect on Hb oxygen binding property. […] These findings confirmed that the potent in vitro activity previously seen in TD7 was at least conserved in the novel PP compounds.
Target sequence in this assay (P69905 2-142 limits assumed): as the sequence (P69905 2-142 limits assumed) above
Target sequence in this assay (P68871 2-147 partner limits assumed): as the sequence (P68871 2-147 partner limits assumed) above

intracellular Hb = molecular target: T3, intracellular Hb (Mus musculus, UniProt P01942); assay: In vivo modification of intracellular Hb in wild-type mice; design: species or system C57BL/6 mice; conditions: IP 150 mg/kg, 30% PEG300, 6 h
T3 construct: from tissue; host or cells: blood (red cell lysates) of dosed C57BL/6 mice
Protocol: We tested in vivo pharmacologic (pharmacodynamics) effects of select PP compounds in C57BL/6 mice. The animals were treated with a single intraperitoneal (IP) (150 mg/kg body weight) dose of PP6, PP10, PP14, and TD7, which were formulated with 30% PEG300. Blood samples were obtained prior to treatment (0) and 1, 3 and 6 h post-treatment, via submandibular bleeding, and subjected to hemolysis using standard methods. Clarified lysates, free of cell debris and red blood cell ghosts were analyzed by cation-exchange HPLC to determine the levels of drug-modified hemoglobin (adducts); and to conduct oxygen equilibrium studies to determine degrees of shift in p50 values using methodologies described earlier for in vitro studies on human samples. In a subsequent follow-up experiment, a new excipient obtained from Catalent Pharma Solutions was also used to formulate PP14 and used for a single intraperitoneal (IP) and oral (150 mg/kg body weight) dose. Blood samples were obtained prior to treatment (0) and 1, 3 or 5 h post-treatment, via submandibular bleeding, and used to determine the levels of drug-modified hemoglobin (adducts); and to conduct oxygen equilibrium studies to determine degrees of shift in p50 values as described above.

T2 sequence (P69905 2-142 limits assumed): as the sequence (P69905 2-142 limits assumed) above
T3 sequence (P01942 2-142 limits assumed): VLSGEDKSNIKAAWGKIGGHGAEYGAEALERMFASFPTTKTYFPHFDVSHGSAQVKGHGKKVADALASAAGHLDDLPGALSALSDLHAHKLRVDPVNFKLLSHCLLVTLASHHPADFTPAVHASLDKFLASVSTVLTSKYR
T3 sequence (P02088 2-147 partner limits assumed): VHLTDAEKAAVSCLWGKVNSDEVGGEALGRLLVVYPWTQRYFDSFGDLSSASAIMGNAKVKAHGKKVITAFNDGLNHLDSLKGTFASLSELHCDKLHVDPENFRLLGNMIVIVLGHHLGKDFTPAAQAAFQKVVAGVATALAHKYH

Row | SMILES | polymer destabilizing effect / sickle inhibition in anoxia (in words) [1] | Fixed Adducts (%) (Hb [2]) | Unfixed Adduct (%) (Hb [2]) | Partitioning Ratio (%) (Hb [2]) | Hb Modification (%) (Hb [3]) | inhibition at 500 µM (sickle red blood cells) [%] | inhibition at 1000 µM (sickle red blood cells) [%] | increase of Hb affinity for oxygen in sickle blood (in words) (sickle Hb) | effect on Hb oxygen binding property (OEC) (Hb [4]) | modified Hb (intracellular Hb) [%]
1 | O=Cc1c(OCc2cccnc2)ccc(F)c1O [Comp 12, 3-fluoro-2-hydroxy-6-(pyridin-3-ylmethoxy)benzaldehyde] | significantly reduced the potency of polymer inhibition | 80.4 ± 9.1 | 80.8 ± 5.9 | 99.4 ± 4.2 | 99.8 ± 0.4 |  |  |  |  | 
2 | O=Cc1c(F)cc(F)cc1OCc1ncccc1F [Comp 13, 2,4-difluoro-6-((3-fluoropyridin-2-yl)methoxy)benzaldehyde] | completely negates the polymer destabilization effects | 80.7 ± 4.8 | 78.4 ± 6.1 | 103.0 ± 2.9 | 79.1 ± 10.3 |  |  |  |  | 
3 | COc1ccc(OCc2ccccn2)c(C=O)c1 [INN-310, reference compound] | only weak potency in anoxia | 82.0 ± 3.1 | 79.7 ± 4.3 | 103.0 ± 1.7 | 65.7 ± 6.0 |  |  |  |  | 
4 | COC(=O)c1cccnc1COc1ccc(OC)cc1C=O [PP2, Methyl 2-((2-formyl-4-methoxyphenoxy)methyl)nicotinate] |  |  |  |  |  | > 35 | > 70 | only marginally increasing Hb affinity for oxygen | most significant activities | 
5 | COC(=O)c1cccc(COc2ccc(OC)cc2C=O)n1 [PP3, Methyl 6-((2-formyl-4-methoxyphenoxy)methyl)picolinate] |  |  |  |  |  |  |  | only marginally increasing Hb affinity for oxygen |  | 
6 | COC(=O)c1cccnc1COc1cccc(O)c1C=O [PP6, Methyl 2-((2-formyl-3-hydroxyphenoxy)methyl)nicotinate] |  |  |  |  |  | > 35 | > 70 | only marginally increasing Hb affinity for oxygen | most significant activities | 16.9±1.4
7 | COC(=O)c1ncccc1COc1ccc(OC)cc1C=O [PP8, Methyl 3-((2-formyl-4-methoxyphenoxy)methyl)picolinate] |  |  |  |  |  | > 35 | ~100 | only marginally increasing Hb affinity for oxygen |  | 
8 | COC(=O)c1ccc(COc2ccc(OC)cc2C=O)nc1 [PP9] |  |  |  |  |  |  | ~100 | only marginally increasing Hb affinity for oxygen | most significant activities | 
